Experimental data as given in paper PMC9603750, “Chalcone-Acridine Hybrid Suppresses Melanoma Cell Progression via G2/M Cell Cycle Arrest, DNA Damage, Apoptosis, and Modulation of MAP Kinases Activity” (International Journal of Molecular Sciences, 2022).

Columns and labels:
BLM = experiment: BrdU cell proliferation assay; type: cell-based, human
Protocol: The BrdU Cell Proliferation Assay is based on the detection of BrdU (5-bromo-2′-deoxyuridine) incorporated into the newly synthesized DNA during the replication process in proliferating cells.
The A2058 (5 × 10^3/well) and BLM (5 × 10^3/well) melanoma cells were plated in a 96-well culture plate in 80 μL suitable medium. Twenty-four hours after cell seeding, different concentrations of the chalcone 1C were added ranging from 5–20 μmol/L. After 48 h of treatment, BrdU labelling solution was added to melanoma cells and incubated for another 24 h at 37 °C followed by fixation and incubation with anti-BrdU peroxidase conjugate solution for an additional 90 min in the dark at room temperature. Cells were then washed 3× with washing solution and incubated with TMB (tetramethylbenzidine) substrate solution (all Roche, Basel, Switzerland) for 5 to 30 min according to colour intensity. Finally, the stop solution (25 μL 1 M H2SO4) was added, and the incorporated BrdU was detected with an automated Cytation™ 3 Cell Imaging Multi-Mode Reader (Biotek, Winooski, VT, USA) at 450 nm. Three independent analyses were performed.

A2058 melanoma cells [1] = experiment: Flow cytometric analysis of cytochrome c release; type: cell-based, human; conditions: A2058, 1C 10 μmol/L, 24, 48 and 72 h
Protocol: (§1) The A2058 and BLM melanoma cells were seeded 1 × 10^6 in Petri dishes with complete growth medium and cultivated for 24 h. After cell cultivation, the A2058 cells were treated with chalcone 1C at 10 μmol/L concentration, BLM cells at 20 μmol/L concentration and both melanoma cell lines were treated with DMSO as the negative control at the same concentrations for 24, 48 and 72 h. Adherent and floating cells were harvested, pelleted by centrifugation at 1200 rpm for 5 min. Pellets were resuspended in washing buffer (PBS) and divided for a particular analysis. Afterwards, cells were prepared according to assay kit protocols or fixed with cold 4% paraformaldehyde (15 min) and permeabilized with 90% methanol (10 min on ice) with washing steps (PBS) and stained prior to analysis (Table 5) for 15 min in the dark at room temperature. Fluorescence was detected using a BD FACSCalibur^TM Flow Cytometer (Becton Dickinson, San Jose, CA, USA).

BLM melanoma cells [2] = experiment: Flow cytometric analysis of cytochrome c release; type: cell-based, human; conditions: 1C 20 μmol/L, 24, 48 and 72 h
Protocol: as §1

A2058 melanoma cells [3] = experiment: Flow cytometric analysis of caspase-3/7 activity; type: cell-based, human; conditions: A2058, 1C 10 μmol/L, 24, 48 and 72 h
Protocol: as §1

BLM melanoma cells [4] = experiment: Flow cytometric analysis of caspase-3/7 activity; type: cell-based, human; conditions: 1C 20 μmol/L, 24, 48 and 72 h
Protocol: as §1

MCF-10A = experiment: BrdU cell proliferation assay; type: cell-based; conditions: Homo sapiens; MCF-10A noncancer cell line
A2058 melanoma cells [5] = experiment: Western blot analyses of protein expression/phosphorylation; type: cell-based, human
Protocol: (§2) Melanoma cells (A2058 and BLM) were treated with the tested chalcone 1C (10 μM and 20 μM) for 24, 48 and 72 h. Protein lysates from melanoma cells were prepared using a Laemmle lysis buffer containing glycerol, 1M Tris/HCl (pH 6.8), 20% sodium dodecyl sulfate (SDS), deionized H20, phosphatase and protease inhibitors (Sigma-Aldrich) and a sonication process. The protein concentrations were determined by the Pierce® BCA Protein Assay Kit (Thermo Scientific, Rockford, IL, USA) and measured by an automated Cytation™ 3 Cell Imaging Multi-Mode Reader (Biotek) at a wavelength of 570 nm. Proteins (25–40 μg of sample per well) were separated on SDS-PAA gel (12%) at 100 V for 3 h and transferred to a polyvinylidene difluoride (PVDF) membrane using the iBlot™ 2 Dry Blotting System (Invitrogen, Carlsbad, CA, USA). Membranes with transferred proteins were blocked in 5% BSA (bovine serum albumin; SERVA, Heidelberg, Germany) or 5% non-fat dry milk (Cell Signaling Technology®, Danvers, MA, USA) in TBS-Tween (pH 7.4) for 1 h at room temperature to minimise non-specific binding. Blocking was followed by incubation with primary antibodies (Table 6) overnight at 4 °C. The next day, membranes were washed in TBS-Tween (3 × 5 min) and incubated with the corresponding horseradish peroxidase (HRP)-conjugated anti-mouse or anti-rabbit secondary antibody for 1 h at room temperature. After incubation, membranes were washed again in TBS-Tween (3 × 5 min) and the expression of proteins was detected using the MF-ChemiBIS 2.0 Imaging System (DNR BIO-Imaging Systems, Jerusalem, Israel) with chemiluminescent ECL substrate (Thermo Scientific, Rockford, IL, USA). A densitometric analysis of Western Blot (WB) results was performed using the Image Studio™ Lite Software (LI-COR Biosciences, Lincoln, NE, USA). Equal loading was verified by using the β-actin antibody. Three independent analyses were performed.

BLM melanoma cells [6] = experiment: as above; type: cell-based, human
Protocol: as §2

A2058 melanoma cells [7] = experiment: Flow cytometric analysis of DNA damage (ATM, SMC1, H2A.X phosphorylation); type: cell-based, human
Protocol: as §1

BLM melanoma cells [8] = experiment: as above; type: cell-based, human
Protocol: as §1

[9] = A2058, 1C 10 μmol/L, 24, 48 and 72 h
[10] = 1C 20 μmol/L, maximum after 72 h

`COc1cccc(OC)c1C(=O)/C=C/c1c2ccccc2nc2ccccc12` [Compound 1C, (2E)-3-(acridin-9-yl)-1-(2,6-dimethoxyphenyl)prop-2-en-1-one] was tested, and the IC50 (BLM; Homo sapiens, BLM, 72 h incubation) was 16.51 ± 0.01 µM, the “Selectivity index, BLM (BrdU)” value (BLM; MCF-10A vs BLM, calculated on the basis of BrdU results) was 1.99 and the Cytochrome c release (A2058 melanoma cells [1]) was “significant release of cytochrome c”. The Cytochrome c release (BLM melanoma cells [2]) was “significant release of cytochrome c”, the “Caspase-3/7 activity in apoptotic cells” value (A2058 melanoma cells [3]) was “significant activity” and the “Caspase-3/7 activity in apoptotic cells” value (BLM melanoma cells [4]) was “significant activity”. The IC50 (MCF-10A) was 32.9 ± 1.56 µM, the “Levels of antiapoptotic protein Bcl-xL (WB)” value (A2058 melanoma cells [5]; A2058, 1C 10 μmol/L) was “decreased levels” and the “Phosphorylation of Bad (WB)” value (A2058 melanoma cells [5]; A2058, 1C 10 μmol/L) was “increasing up to 48 h”. The “Phosphorylation of Bcl-2 (WB)” value (A2058 melanoma cells [5]; A2058, 1C 10 μmol/L) was “increased in A2058 up to 48 h and decreased at 72 h”, the “Phosphorylation of Chk1 (WB)” value (A2058 melanoma cells [5]; A2058, 1C 10 μmol/L, 24, 48 (maximum) and 72 h) was “significantly induced” and the “Levels of cleaved PARP (89 kDa) (WB)” value (A2058 melanoma cells [5]; [9]) was “significantly increased”. The “Total and phosphorylated p53 protein (WB)” value (A2058 melanoma cells [5]; [9]) was “significant increase”, the “Expression of p21 protein (WB)” value (A2058 melanoma cells [5]; A2058, 1C 10 μmol/L, after 24 and 48 h) was “significant increase” and the “Phospho-JNK (WB)” value (A2058 melanoma cells [5]; A2058, 1C 10 μmol/L, all tested timepoints) was “significantly increased”. For the same compound, the “Phosphorylated form of p38 MAPK (WB)” value (A2058 melanoma cells [5]; A2058, 1C 10 μmol/L, mainly after 48 h) was “significantly increased”, the “Expression of α-, α1C- and β-tubulin (WB)” value (A2058 melanoma cells [5]; A2058, 1C 10 μmol/L, maximum after 48 and 72 h) was “significant upregulation” and the “Phosphorylation of ERK1/2 (WB)” value (A2058 melanoma cells [5]; A2058, 1C 10 μmol/L, maximum after 48 h) was “significantly increased”. The “Phosphorylated cyclin B1 (WB)” value (A2058 melanoma cells [5]; A2058, 1C 10 μmol/L, maximum after 72 h) was “significant downregulation”, the “Amounts of proapoptotic protein Bax and Bad (WB)” value (A2058 melanoma cells [5]; A2058, 1C 10 μmol/L, maximum at 48 h) was “significantly increased” and the “Total Bcl-2 protein (WB)” value (A2058 melanoma cells [5]; A2058, 1C 10 μmol/L, up to 48 h) was “upregulated”. The “Expression of p21 protein (WB)” value (BLM melanoma cells [6]; 1C 20 μmol/L) was “showed an increase and maintained a trend”, the “Levels of antiapoptotic protein Bcl-xL (WB)” value (BLM melanoma cells [6]; 1C 20 μmol/L) was “decreased levels” and the “Phosphorylation of Bad (WB)” value (BLM melanoma cells [6]; 1C 20 μmol/L) was “increasing up to 48 h”. The “Phosphorylation of Bcl-2 (WB)” value (BLM melanoma cells [6]; 1C 20 μmol/L) was “increased up to the 72 h time point”, the “Phosphorylation of Chk1 (WB)” value (BLM melanoma cells [6]; 1C 20 μmol/L) was “consilient trend of Chk1 phosphorylation” and the “Phosphorylation of ERK1/2 (WB)” value (BLM melanoma cells [6]; 1C 20 μmol/L) was “consilient trend of ERK1/2 phosphorylation”. For the same compound, the “Total Bcl-2 protein upregulated (WB)” value (BLM melanoma cells [6]; 1C 20 μmol/L) was “it was not”, the “p53 phosphorylation (WB)” value (BLM melanoma cells [6]; 1C 20 μmol/L) was “phosphorylation increased late on 72 h” and the “Levels of cleaved PARP (89 kDa) (WB)” value (BLM melanoma cells [6]; 1C 20 μmol/L, 24, 48 and 72 h) was “significantly increased”. For the same compound, the “Total p53 protein (WB)” value (BLM melanoma cells [6]; 1C 20 μmol/L, 24, 48 and 72 h) was “maintenanted on basic levels as DMSO treated controls, with little decrease at 24 h”, the “Phospho-JNK (WB)” value (BLM melanoma cells [6]; 1C 20 μmol/L, all tested timepoints) was “significantly increased” and the “Phosphorylated form of p38 MAPK (WB)” value (BLM melanoma cells [6]; 1C 20 μmol/L, mainly after 48 h) was “significantly increased”. The “Expression of α1C-tubulin (WB)” value (BLM melanoma cells [6]; [10]) was “upregulation”, the “Phosphorylated cyclin B1 (WB)” value (BLM melanoma cells [6]; [10]) was “significant downregulation” and the “Amounts of proapoptotic protein Bax and Bad (WB)” value (BLM melanoma cells [6]; 1C 20 μmol/L, maximum at 48 h) was “significantly increased”. The “Expression of α- and β-tubulin (WB)” value (BLM melanoma cells [6]; 1C 20 μmol/L, time-dependent) was “significant downregulation”, the “Phosphorylation of H2A.X” value (A2058 melanoma cells [7]; [9]) was “significantly induced” and the “Phosphorylation of SMC1” value (A2058 melanoma cells [7]; [9]) was “significant phosphorylation”. The “Phosphorylation of ATM” value (A2058 melanoma cells [7]; A2058, 1C 10 μmol/L, time-dependent (24, 48 and 72 h)) was “significantly induced”, the “Phosphorylation of H2A.X” value (BLM melanoma cells [8]; 1C 20 μmol/L, 24, 48 and 72 h) was “significantly induced” and the “Phosphorylation of SMC1” value (BLM melanoma cells [8]; 1C 20 μmol/L, 24, 48 and 72 h) was “significant phosphorylation”. For the same compound, the “Phosphorylation of ATM” value (BLM melanoma cells [8]; 1C 20 μmol/L, time-dependent (24, 48 and 72 h)) was “significantly induced”.
